This passage reports IC50 results from patent publication US7754200B2, “Phosphate transport inhibitors” (Genzyme Corporation, priority 2002, dated 2010).

The test has as its system phosphate uptake by rabbit intestinal Brush Border Membrane Vesicles (BBMV). Nature of the test: 33PO4 Uptake in Rabbit Intestinal BBMV High Throughput Screening (HTS) assay. In kind it is biochemical. Conditions: inhibition of 33PO4 uptake, 15 minutes. An excerpt:
The activity of compounds of the present invention can be assessed using suitable assays, such as the ^33PO4 Uptake In Rabbit Intestinal BBMV High Throughput Screening (HTS) assay, as described in the Example 28. Compounds of the present invention can also be identified by virtue of their ability to inhibit the absorption of phosphate in vivo, for example, in the gastrointestinal tract of a laboratory animal.
The following example outlines the procedures required for in vitro measurement of the inhibition of phosphate uptake by rabbit intestinal Brush Border Membrane Vesicles (BBMV).
Rabbit Intestinal Brush Border Membrane Vesicles (BBMV) were isolated from mucosal scrapings of the upper small intestine (duodenum) of male New Zealand White rabbits. The scrapings were divided into 2 g aliquots in cryopreservation vials, frozen in liquid nitrogen, and stored at −80° C.
The following procedure was performed for each 2 g sample of BBMV mucosal scraping. Buffer volumes and container sizes were adjusted appropriately for the number of 2 g samples used. The entire preparation was performed on ice, unless otherwise stated.
Mucosal scrapings (2 g per tube) were thawed in a 37° C. water bath for 3 minutes and then placed on ice. The scrapings were suspended with a total of 7.5 mL of 300 MET, and transferred to a 250 mL Coming tube on ice. To the suspension was added 30 mL cold (4° C.) deionized water (dH2O). The suspension was homogenized with a tissue homogenizer (Polytron) on high speed for two minutes. A stir bar and MgCl2 (81.3 mg) were added. The suspension was mixed well by inverting the closed tube. The suspension was stirred on ice, ensuring that a good vortex is achieved with the stir bar, for 40 minutes. The suspension was transferred to a chilled centrifuge tube and spun at 4000×g for 15 minutes. The supernatant was transferred to a new chilled centrifuge tube and spun at 32000×g for 30 minutes. The supernatant was discarded and the pellet was re-suspended with 34 mL cold 60 MET. The suspension was homogenized with a Dounce homogenizer with 8 strokes. The suspension was transferred to a fresh 250 mL Coming tube. A stir bar and 69.1 mg MgCl2 were added. The suspension was stirred well on ice for 10 minutes. The suspension was transferred to a chilled centrifuge tube and spun at 4000×g for 15 minutes. The supernatant was transferred to a new chilled centrifuge tube and spun at 32000×g for 30 minutes. The supernatant was discarded. At this stage, the preparation could be continued or this pellet (P4) could be frozen in liquid nitrogen and stored at −80° C. When needed, this pellet could be allowed to thaw at room temperature for 5 minutes. Continuing the preparation, the pellet was re-suspended with 34 mL cold 280 MH. The suspension was homogenized in a Dounce homogenize with 8 strokes. The suspension was transferred to a new chilled centrifuge tube and spun at 32000×g for 30 minutes. The supernatant was discarded. To the pellet was added 500 μL 280 MH and the pellet was re-suspended very carefully with a 1 mL tuberculin syringe with a 25-gauge needle with care not to create bubbles. Once the entire pellet was suspended, the suspension was transferred to a chilled 1.5 mL microfuge tube. The suspension was evenly dispersed by bringing the suspension up into the syringe through the 25-gauge needle, and back out again eight times with care not to create bubbles. The total protein concentration was determined by performing a Bradford Protein Assay. Using that value, the BBMV were diluted with 280 MH to reach approximately 0.5-2.0 mg/mL. The solution was used as soon as possible for uptake studies.
^33PO4 Uptake in Rabbit Intestinal BBMV
The following experiment was performed using a Beckman Multimek 96-tip robotic pipettor. The following outlines the preparation required to screen one 96-well plate of compounds. However, multiple plates could be screened in one experiment. […]

One may read the IC50 as the concentration at which inhibition is half-maximal. Low values mean higher potency, high ones lower potency. `CCCCCCCCCCP(=O)(O)CP(=O)(O)O` [Compound 1]: the IC50 is < 100 µM.

For `C=CCCCCCCCCCP(=O)(O)C(F)(F)P(=O)(O)O` [Compound 2], the IC50 was < 100 µM.

With `C=CCCCCCCCCCP(=O)(O)C(F)P(=O)(O)O` (centres unmarked) [Compound 3], the IC50 is < 100 µM.

As for `C=CCCCCCCCCCP(=O)(O)CP(=O)(O)O` [Compound 4], the IC50 was < 100 µM.

As for `O=P(O)(O)CP(=O)(O)c1ccc(C(F)(F)F)cc1` [Compound 5], the IC50 was < 100 µM.

Take `O=P(O)(O)CP(=O)(O)CCCCCCCCCC(Br)CBr` (centres unmarked) [Compound 6]: the IC50 is < 100 µM.

With `O=C1c2ccccc2C(=O)N1CCCCCCCCCCCP(=O)(O)CP(=O)(O)O` [Compound 8], the IC50 is < 100 µM.

`O=C(NCCCCCCCCCCCP(=O)(O)CP(=O)(O)O)c1ccc(OC(F)(F)F)cc1` [Compound 10]: the IC50 was in the range of 100 to 300 µM.

`C=CCCC(CCCCCCCCCC)P(=O)(O)CP(=O)(O)O` (centres unmarked) [Compound 11]: the IC50 is 100 to 300 µM.

In the case of `O=P(O)(O)CP(=O)(O)CCCCCCCCCCCNS(=O)(=O)c1ccc(OC(F)(F)F)cc1` [Compound 14], the IC50 lay within 100 to 300 µM.

As to `C=CCCCCCCCCCP(=O)(O)CP(=O)(O)CP(=O)(O)O` [Compound 16], the IC50 was 100 to 300 µM.

As for `C=CCCCP(=O)(O)C(CCCCCCCCCC)P(=O)(O)O` (centres unmarked) [Compound 17], the IC50 fell in the range of 300 to 700 µM.

Compound `CCCCCCCCCC(CCCCCN)P(=O)(O)CP(=O)(O)O` (centres unmarked) [Compound 18] had an IC50 of 300 to 700 µM.

In turn, `O=P(O)(O)CP(=O)(O)CCCC1CCCCC1` [Compound 19] showed an IC50 of 300 to 700 µM.

Consider `C=CCCCCCCCCCP(=O)(O)C(CCCCC)P(=O)(O)O` (centres unmarked) [Compound 21], for which the IC50 is 700 to 1000 µM.

On to `O=P(O)(O)CP(=O)(O)CCCCCCCCCC1CO1` (centres unmarked) [Compound 22], for which the IC50 is 700 to 1000 µM.

Take `C=CCCCCCCCCCP(=O)(O)C(CCCCC)P(=O)(O)O` (centres unmarked) [Compound 23]: the IC50 fell in the range of 700 to 1000 µM.

The compound `CCC(=O)NCCCCCCCCCCCP(=O)(O)CP(=O)(O)O` [Compound 24] returned an IC50 of 700 to 1000 µM.

For the compound `O=P(O)(O)CP(=O)(O)CCCCCCCCCCCO` [Compound 25], the IC50 fell in the range of 700 to 1000 µM.

The compound `CCCCCCCCCCC(P(C)(=O)O)P(=O)(O)O` (centres unmarked) [Compound 26] had an IC50 of 700 to 1000 µM.

The compound `NCCCCCCCCCCCP(=O)(O)CP(=O)(O)O` [Compound 27] displayed an IC50 of 1000 to 1600 µM.

With `CCCCCCCCCC(CCCCCNC(=O)CC)P(=O)(O)CP(=O)(O)O` (centres unmarked) [Compound 28], the IC50 is 1000 to 1600 µM.

`O=P(O)(O)CP(=O)(O)CCCCCBr` [Compound 29] showed an IC50 of 1000 to 1600 µM.

As for `O=P(O)(O)CP(=O)(O)C/C=C/c1ccccc1` [Compound 30], the IC50 lay in the range of 1000 to 1600 µM.

The compound `C=CCCCP(=O)(O)C(Cc1ccc(-c2ccccc2)cc1)P(=O)(O)O` (centres unmarked) [Compound 32] gave an IC50 of 1000 to 1600 µM.

`O=P(O)(O)CP(=O)(O)C1CCCCC1` [Compound 33]: the IC50 is > 1600 µM.

For the compound `C=CCCCP(=O)(O)CP(=O)(O)O` [Compound 34], the IC50 is > 1600 µM.

As for `C=CC(=O)NCCCCCCCCCCCP(=O)(O)CP(=O)(O)O` [Compound 35], the IC50 is > 1600 µM.

`C=CCCCP(=O)(O)C(CCCC1CCCCC1)P(=O)(O)O` (centres unmarked) [Compound 36]: the IC50 is > 1600 µM.
